# Where two headings read alike, the source gives them in different places.
# Tests used:
# Assay type in all cases: biochemical
# Aurora A = target: T1, Aurora A (Homo sapiens, UniProt O14965); assay: Aurora kinase A Kinase-Glo kinase assay; settings: Aurora A assay, 5 μM ATP, read-out: IC50
# T1 construct: GST-Aurora A (residues S123-S401); GST (N); made in house; host or cells: Sf9 insect cells
# T1 sequence (O14965 123-401): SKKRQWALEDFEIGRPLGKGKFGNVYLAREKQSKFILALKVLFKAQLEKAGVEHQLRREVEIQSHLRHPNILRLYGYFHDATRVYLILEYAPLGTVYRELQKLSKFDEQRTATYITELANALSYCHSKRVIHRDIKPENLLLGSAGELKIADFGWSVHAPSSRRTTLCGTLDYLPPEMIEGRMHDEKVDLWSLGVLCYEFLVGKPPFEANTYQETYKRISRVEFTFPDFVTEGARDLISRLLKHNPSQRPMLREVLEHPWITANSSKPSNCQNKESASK
# Description: The recombinant GST-Aurora A (residues S123-S401) containing kinase domain were expressed in Sf9 insect cells. The kinase assay were carried out in 96-well plates with tested compound in a final volume of 50 μl reaction at 37° C. for 90 minutes with following components: 50 mM Tris-HCl pH 7.4, 10 mM NaCl, 10 mM MgCl2, 0.01% BSA, 5 μM ATP, 1 mM DTT and 15 μM tetra(LRRASLG) peptide, and 150 ng recombinant Aurora A. Following incubation, 50 μl Kinase-Glo Plus Reagent (Promega, Madison, Wis., USA) was added to each well and the mixture was incubated at 25° C. for 20 min. A 70-μL aliquot of each reaction mixture was transferred to a black microtiter plate and the luminescence was measured on Wallac Vector 1420 multilabel counter (PerkinElmer, Shelton, Conn., USA).
# wt-FLT3 = target: T2, wt-FLT3 (Homo sapiens, UniProt P36888); assay: FLT3 WT Kinase-Glo assay; settings: FLT3 WT Kinase-Glo, 1 μM ATP; read-out: IC50
# T2 construct: FLT3 kinase catalytic domain (residues Y567˜S993); made in house; host or cells: Sf9 insect cells (baculovirus, pBac-PAK8-GST-FLT3-KD plasmid)
# T2 sequence (P36888 567-993): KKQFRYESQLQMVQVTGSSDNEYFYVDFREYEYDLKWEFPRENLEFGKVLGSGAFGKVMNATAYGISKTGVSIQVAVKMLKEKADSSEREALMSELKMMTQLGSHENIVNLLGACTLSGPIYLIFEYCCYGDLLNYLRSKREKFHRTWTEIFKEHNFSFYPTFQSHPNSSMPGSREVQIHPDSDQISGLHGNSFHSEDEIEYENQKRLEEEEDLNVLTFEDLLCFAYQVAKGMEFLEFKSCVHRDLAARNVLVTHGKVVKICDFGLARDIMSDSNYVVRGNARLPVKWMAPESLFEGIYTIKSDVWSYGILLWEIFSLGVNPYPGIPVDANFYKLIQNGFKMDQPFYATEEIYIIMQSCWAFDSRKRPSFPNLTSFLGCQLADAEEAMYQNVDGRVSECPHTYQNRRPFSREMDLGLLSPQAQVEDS
# Description: GST-FLT3-KD^WT containing the FLT3 kinase catalytic domain (residues Y567˜S993) were expressed in Sf9 insect cells transfected the baculovirus containing pBac-PAK8-GST-FLT3-KD plasmid. […] Following incubation, 50 μl Kinase-Glo Plus Reagent (Promega, Madison, Wis., USA) was added to each well and the mixture was incubated at 25° C. for 20 min. A 70-μL aliquot of each reaction mixture was transferred to a black microtiter plate and the luminescence was measured on Wallac Vector 1420 multilabel counter (PerkinElmer, Shelton, Conn., USA).
# VEGFR1 = target: T3, VEGFR1 (Homo sapiens, UniProt P17948); assay: VEGFR1 Kinase-Glo kinase assay; settings: VEGFR1 assay, 1 μM ATP, read-out: IC50
# T3 construct: GST-VEGFR1 (residues R781-I1338); GST (N); made in house; host or cells: Sf9 insect cells
# T3 sequence (P17948 781-1338): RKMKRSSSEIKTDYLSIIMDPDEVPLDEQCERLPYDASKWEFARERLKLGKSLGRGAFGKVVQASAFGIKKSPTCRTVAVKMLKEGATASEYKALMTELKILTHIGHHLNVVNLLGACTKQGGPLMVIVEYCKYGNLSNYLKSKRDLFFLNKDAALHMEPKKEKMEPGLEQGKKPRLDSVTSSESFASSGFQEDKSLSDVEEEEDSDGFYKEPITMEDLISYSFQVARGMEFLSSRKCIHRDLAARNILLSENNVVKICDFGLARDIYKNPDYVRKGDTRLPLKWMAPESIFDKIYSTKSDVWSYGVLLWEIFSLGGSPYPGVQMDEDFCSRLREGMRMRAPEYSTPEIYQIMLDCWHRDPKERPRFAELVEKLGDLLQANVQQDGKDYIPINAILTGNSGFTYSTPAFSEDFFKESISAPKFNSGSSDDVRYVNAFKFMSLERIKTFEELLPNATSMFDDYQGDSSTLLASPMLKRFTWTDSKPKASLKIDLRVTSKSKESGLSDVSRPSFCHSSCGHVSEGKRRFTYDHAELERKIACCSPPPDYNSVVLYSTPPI
# Description: (§1) The recombinant GST-VEGFR1 (residues R781-I1338) or GST-VEGFR2 (residues V789-V1356) containing kinase domain were expressed in Sf9 insect cells. The kinase assay were carried out in 96-well plates with tested compound in a final volume of 50 μl reaction at 30° C. for 120 minutes with following components: 25 mM HEPES pH 7.4, 10 mM MgCl2, 4 mM MnCl2, 0.5 mM Na3VO4, 2 mM DTT, 0.02% Triton X100, 0.01% BSA, 1 μM ATP, 2 μM polyGlu4:Tyr peptide, 50˜100 ng recombinant VEGFR1 or VEGFR2. Following incubation, 50 μl Kinase-Glo Plus Reagent (Promega, Madison, Wis., USA) was added to each well and the mixture was incubated at 25° C. for 20 min. A 70-μL aliquot of each reaction mixture was transferred to a black microtiter plate and the luminescence was measured on Wallac Vector 1420 multilabel counter (PerkinElmer, Shelton, Conn., USA).
# VEGFR2 = target: T4, VEGFR2 (Homo sapiens, UniProt P35968); assay: VEGFR2 Kinase-Glo kinase assay; settings: VEGFR2 assay, 1 μM ATP, read-out: IC50
# T4 construct: GST-VEGFR2 (residues V789-V1356); GST (N); made in house; host or cells: Sf9 insect cells
# T4 sequence (P35968 789-1356): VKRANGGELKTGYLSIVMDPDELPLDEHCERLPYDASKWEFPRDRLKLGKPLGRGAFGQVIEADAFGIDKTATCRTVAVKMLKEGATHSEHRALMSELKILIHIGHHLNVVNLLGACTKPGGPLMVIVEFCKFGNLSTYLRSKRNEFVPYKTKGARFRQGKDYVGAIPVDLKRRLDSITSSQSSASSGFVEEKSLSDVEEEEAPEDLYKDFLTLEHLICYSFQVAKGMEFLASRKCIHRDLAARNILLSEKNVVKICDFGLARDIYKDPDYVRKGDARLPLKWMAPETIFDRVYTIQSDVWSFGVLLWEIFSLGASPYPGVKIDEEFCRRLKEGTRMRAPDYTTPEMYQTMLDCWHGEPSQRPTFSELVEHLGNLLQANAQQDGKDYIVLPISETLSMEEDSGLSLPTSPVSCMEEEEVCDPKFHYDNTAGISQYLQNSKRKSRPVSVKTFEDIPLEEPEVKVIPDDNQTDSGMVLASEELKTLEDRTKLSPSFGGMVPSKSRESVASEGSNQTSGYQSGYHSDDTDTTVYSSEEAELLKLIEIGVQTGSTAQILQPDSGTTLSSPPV
# Description: as §1
IC50 (Aurora A; bound in nM),IC50 (Aurora A; bound in μM),IC50 (wt-FLT3),IC50 (VEGFR1; bound in μM),IC50 (VEGFR2; bound in μM),IC50 (VEGFR2; ranges in nM),IC50 (VEGFR1; bound in nM),SMILES
< 200 nM,< 1000 nM,–,–,–,–,–,"CN1CCN(c2ccc(C(=O)Nc3cc(-c4ccc(NC(=O)c5ccccc5)cc4)n[nH]3)cc2)CC1 [Compound 10, N1-3-[4-(benzoylamino)phenyl]-1H-5-pyrazolyl-4-(4-methylpiperazino)benzamide]"
–,< 1000 nM,0.001 to 0.02 µM,< 1 µM,< 1 µM,0.055 to 0.4 µM,–,"CN1CCN(c2ccc(C(=O)Nc3cc(-c4cccc(NS(=O)(=O)c5ccccc5)c4)n[nH]3)cc2)CC1 [Compound 12, N1-(3-3-[(phenylsulfonyl)amino]phenyl-1H-5-pyrazolyl)-4-(4-methylpiperazino)benzamide]"
–,< 1000 nM,0.001 to 0.02 µM,< 1 µM,< 1 µM,0.055 to 0.4 µM,–,"Cc1cccc(S(=O)(=O)Nc2cccc(-c3cc(NC(=O)c4ccc(N5CCN(C)CC5)cc4)[nH]n3)c2)c1 [Compound 15, N1-[3-(3-[(3-methylphenyl)sulfonyl]aminophenyl)-1H-5-pyrazolyl]-4-(4-methylpiperazino)benzamide]"
–,< 1000 nM,0.001 to 0.02 µM,–,< 1 µM,0.001 to 0.055 µM,–,"CN1CCN(c2ccc(C(=O)Nc3cc(-c4ccc(NC(=O)Nc5ccccc5)cc4)n[nH]3)cc2)CC1 [Compound 30, N1-(3-4-[(anilinocarbonyl)amino]phenyl-1H-5-pyrazolyl)-4-(4-methylpiperazino)benzamide]"
< 200 nM,< 1000 nM,0.001 to 0.02 µM,< 1 µM,< 1 µM,0.001 to 0.055 µM,–,"Cc1cc(NC(=O)Nc2ccc(-c3cc(NC(=O)c4ccc(N5CCN(C)CC5)cc4)[nH]n3)cc2)no1 [Compound 32, N1-3-[4-([(5-methyl-3-isoxazolyl)amino]carbonylamino)phenyl]-1H-5-pyrazolyl-4-(4-methylpiperazino)benzamide]"
< 200 nM,< 1000 nM,0.001 to 0.02 µM,< 1 µM,< 1 µM,0.001 to 0.055 µM,< 0.1 µM,"CN1CCN(Cc2ccc(C(=O)Nc3cc(-c4ccc(NC(=O)Nc5cc(C(C)(C)C)on5)cc4)n[nH]3)cc2)CC1 [Compound 43, N1-(3-4-[([5-(tert-butyl)-3-isoxazolyl]aminocarbonyl)amino]phenyl-1H-5-pyrazolyl)-4-[(4-methylpiperazino)methyl]benzamide]"
< 200 nM,< 1000 nM,0.001 to 0.02 µM,< 1 µM,< 1 µM,0.001 to 0.055 µM,< 0.1 µM,"CC(C)(C)c1cc(NC(=O)Nc2ccc(-c3cc(NC(=O)c4ccc(OCCN5CCOCC5)cc4)[nH]n3)cc2)no1 [Compound 44, N1-(3-4-[([5-(tert-butyl)-3-isoxazolyl]aminocarbonyl)amino]phenyl-1H-5-pyrazolyl)-4-(2-morpholinoethoxy)benzamide]"
–,< 1000 nM,0.001 to 0.02 µM,–,< 1 µM,0.001 to 0.055 µM,–,"Cc1cc(NC(=O)Nc2ccc(-c3cc(NC(=O)c4ccc(N5CCN(C)CC5)cc4)[nH]n3)cc2C)no1 [Compound 47, N1-3-[3-methyl-4-([(5-methyl-3-isoxazolyl)amino]carbonylamino)phenyl]-1H-5-pyrazolyl-4-(4-methylpiperazino)benzamide]"
–,< 1000 nM,0.001 to 0.02 µM,–,< 1 µM,0.001 to 0.055 µM,–,"O=C(NCc1ccc(-c2cc(NC(=O)c3ccc(OCCN4CCOCC4)cc3)[nH]n2)cc1)Nc1ccccc1 [Compound 61a, N1-[3-(4-[(anilinocarbonyl)amino]methylphenyl)-1H-5-pyrazolyl]-4-(2-morpholinoethoxy)benzamide]"
–,< 1000 nM,0.001 to 0.02 µM,< 1 µM,< 1 µM,0.055 to 0.4 µM,< 0.1 µM,"CN1CCN(c2ccc(C(=O)Nc3cc(-c4ccc(CNC(=O)OCc5ccccc5)cc4)n[nH]3)cc2)CC1 [Compound 70, Benzyl-N-[4-(5-[4-(4-methylpiperazino)benzoyl]amino-1H-3-pyrazolyl)benzyl]carbamate]"
–,< 1000 nM,0.001 to 0.02 µM,< 1 µM,< 1 µM,0.055 to 0.4 µM,–,"Cc1nc(Nc2cc(-c3cccc(NS(=O)(=O)c4ccccc4)c3)n[nH]2)cc(N2CCN(C)CC2)n1 [Compound 85, N1-[3-(5-[2-methyl-6-(4-methylpiperazino)-4-pyrimidinyl]amino-1H-3-pyrazolyl)phenyl]-1-benzenesulfonamide]"
< 200 nM,–,0.001 to 0.02 µM,–,–,–,–,CCN1CCN(c2cc(Nc3ncc(-c4ccc(N)cc4)s3)nc(C)n2)CC1 [Compound 102]
–,< 1000 nM,–,–,–,–,–,"Cc1nc(Nc2ncc(-c3ccc(NC(=O)Nc4cc(C)on4)cc3)s2)cc(N2CCN(C)CC2)n1 [Compound 103, N-(5-methyl-3-isoxazolyl)-N′-[4-(2-[2-methyl-6-(4-methylpiperazino)-4-pyrimidinyl]amino-1,3-thiazol-5-yl)phenyl]urea]"
< 200 nM,–,–,–,–,–,–,"Cc1cc(NC(=O)Nc2ccc(-c3cnc(NC(=O)c4ccc(OCCN5CCOCC5)cc4)s3)cc2)no1 [Compound 120, N1-5-[4-([(5-methyl-3-isoxazolyl)amino]carbonylamino)phenyl]-1,3-thiazol-2-yl-4-(2-morpholinoethoxy)benzamide]"

# Reference: patent US9255072B2, “Pyrazole compounds and thiazole compounds as protein kinases inhibitors” (National Health Rsearch Institutes, priority 2011, dated 2016)
